Measurements from patent US20250230193A1, “CYCLIC COMPOUND HAVING SELECTIVE KRAS INHIBITORY EFFECT ON HRAS AND NRAS” (CHUGAI SEIYAKU KABUSHIKI KAISHA, priority 2022, published 2025).
*1 amine or outer side, *2 acyl side, *3 side chain or, on linkers, in order; H or OH if unused. Where a SMILES comes first, the peptide text is derived from it. Bridges are numbered along the chain shown (N, C = ends). [ ]: non-standard residue; d: D form. The star is where a group is joined. hPhe(3-Cl-4-CF3) = N[C@@H](CCc1ccc(C(F)(F)F)c(Cl)c1)C(=O)O; NPrPhe(4-CF3) = CCCN[C@@H](Cc1ccc(C(F)(F)F)cc1)C(=O)O; NEtPhe(4-CF3) = CCN[C@@H](Cc1ccc(C(F)(F)F)cc1)C(=O)O; hPhe(3,4-Cl2) = N[C@@H](CCc1ccc(Cl)c(Cl)c1)C(=O)O; X10 = CCCN([C@@H](Cc1ccc(F)cc1)C(=O)[*:2])[*:1]; NEtPhe(4-F) = CCN[C@@H](Cc1ccc(F)cc1)C(=O)O; NMePhe(4-F) = CN[C@@H](Cc1ccc(F)cc1)C(=O)O; NMeGly(cPent) = CN[C@H](C(=O)O)C1CCCC1; Hyp = O=C(O)[C@@H]1C[C@@H](O)CN1; NMeD = CN[C@@H](CC(=O)O)C(=O)O; NMeL = CN[C@@H](CC(C)C)C(=O)O; Ac6c = NC1(C(=O)O)CCCCC1; Morpholide = C1CN(*)CCO1; NMeA = CN[C@@H](C)C(=O)O; Ac5c = NC1(C(=O)O)CCCC1; Aze = O=C(O)[C@@H]1CCN1; Ac3c = NC1(C(=O)O)CC1; Aib = CC(C)(N)C(=O)O; Sar = CNCC(=O)O

Experiments:
[1] = biological target: GDP-bound NRAS wild-type protein (Homo sapiens, UniProt P01111); assay: Binding to NRAS by surface plasmon resonance (SPR), Single Cycle Kinetics; settings: KD ratio NRAS/KRAS, SPR
Chain of GDP-bound NRAS wild-type protein (P01111 whole entry): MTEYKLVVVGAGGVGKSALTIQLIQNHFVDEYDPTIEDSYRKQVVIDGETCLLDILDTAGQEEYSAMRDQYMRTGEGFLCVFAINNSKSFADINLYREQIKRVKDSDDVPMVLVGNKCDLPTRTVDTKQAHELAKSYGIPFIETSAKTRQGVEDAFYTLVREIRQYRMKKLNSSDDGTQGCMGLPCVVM

[2] = biological target: GDP-bound HRAS wild-type protein (Homo sapiens, UniProt P01112); assay: Binding to HRAS by surface plasmon resonance (SPR), Single Cycle Kinetics; settings: KD ratio HRAS/KRAS, SPR
Chain of GDP-bound HRAS wild-type protein (P01112 whole entry): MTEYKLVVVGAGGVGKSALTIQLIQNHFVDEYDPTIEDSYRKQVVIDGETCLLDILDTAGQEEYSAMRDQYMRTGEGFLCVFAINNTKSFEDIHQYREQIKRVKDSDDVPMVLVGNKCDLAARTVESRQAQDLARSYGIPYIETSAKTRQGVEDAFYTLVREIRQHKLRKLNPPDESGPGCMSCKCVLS

| Structure (SMILES) | NRAS/KRAS (ratio of KD for GDP-bound NRAS wild-type to KD for KRAS) [1] | HRAS/KRAS (ratio of KD for GDP-bound HRAS wild-type to KD for KRAS) [2] |
| --- | --- | --- |
| CC[C@H](C)[C@@H]1NC(=O)[C@H](CC(C)C)N(C)C(=O)C[C@@H](C(=O)N2CCOCC2)N(C)C(=O)[C@H](C2CCCC2)N(C)C(=O)C2(CCCC2)NC(=O)[C@@H]2CCCN2C(=O)[C@H](CCc2ccc(C(F)(F)F)c(Cl)c2)NC(=O)CN(C)C(=O)[C@H](Cc2ccc(F)cc2)N(C)C(=O)[C@@H]2CCN2C(=O)[C@H](C)N(C)C1=O [PP0217] ([NMeL]I[NMeA][Aze][NMePhe(4-F)][Sar][hPhe(3-Cl-4-CF3)]P[Ac5c][NMeGly(cPent)][NMeD]-Morpholide; lactam N-11) | C (A compound having a KD ratio of 0.1 or more and less than 3 is denoted as C) | C (A compound having a KD ratio of 0.1 or more and less than 3 is denoted as C) |
| CC[C@H](C)[C@@H]1NC(=O)[C@H](CC(C)C)N(C)C(=O)C[C@@H](C(=O)N2CCOCC2)N(C)C(=O)[C@H](C2CCCC2)N(C)C(=O)C2(CCCC2)NC(=O)[C@@H]2CCCN2C(=O)[C@H](CCc2ccc(C(F)(F)F)c(Cl)c2)NC(=O)CN(C)C(=O)[C@H](Cc2ccc(F)cc2)N(CC)C(=O)[C@@H]2CCN2C(=O)[C@H](C)N(C)C1=O [PP0218] ([NMeL]I[NMeA][Aze][NEtPhe(4-F)][Sar][hPhe(3-Cl-4-CF3)]P[Ac5c][NMeGly(cPent)][NMeD]-Morpholide; lactam N-11) | C (A compound having a KD ratio of 0.1 or more and less than 3 is denoted as C) | C (A compound having a KD ratio of 0.1 or more and less than 3 is denoted as C) |
| CCCN1C(=O)[C@@H]2CCN2C(=O)[C@H](C)N(C)C(=O)[C@H]([C@@H](C)CC)NC(=O)[C@H](CC(C)C)N(C)C(=O)C[C@@H](C(=O)N2CCOCC2)N(C)C(=O)[C@H](C2CCCC2)N(C)C(=O)C2(CCCC2)NC(=O)[C@@H]2CCCN2C(=O)[C@H](CCc2ccc(C(F)(F)F)c(Cl)c2)NC(=O)CN(C)C(=O)[C@@H]1Cc1ccc(F)cc1 [PP0219] ([NMeL]I[NMeA][Aze][X10][Sar][hPhe(3-Cl-4-CF3)]P[Ac5c][NMeGly(cPent)][NMeD]-Morpholide; lactam N-11) | C (A compound having a KD ratio of 0.1 or more and less than 3 is denoted as C) | B (a compound having 3 or more and less than 10 is denoted as B) |
| CC[C@H](C)[C@@H]1NC(=O)[C@H](CC(C)C)N(C)C(=O)C[C@@H](C(=O)N2CCOCC2)N(C)C(=O)[C@H](C2CCCC2)N(C)C(=O)C2(CC2)NC(=O)[C@@H]2CCCN2C(=O)[C@H](CCc2ccc(C(F)(F)F)c(Cl)c2)NC(=O)CN(C)C(=O)[C@H](Cc2ccc(C(F)(F)F)cc2)N(CC)C(=O)[C@@H]2CCN2C(=O)[C@H](C)N(C)C1=O [PP0220] ([NMeL]I[NMeA][Aze][NEtPhe(4-CF3)][Sar][hPhe(3-Cl-4-CF3)]P[Ac3c][NMeGly(cPent)][NMeD]-Morpholide; lactam N-11) | C (A compound having a KD ratio of 0.1 or more and less than 3 is denoted as C) | C (A compound having a KD ratio of 0.1 or more and less than 3 is denoted as C) |
| CC[C@H](C)[C@@H]1NC(=O)[C@H](CC(C)C)N(C)C(=O)C[C@@H](C(=O)N2CCOCC2)N(C)C(=O)[C@H](C2CCCC2)N(C)C(=O)C(C)(C)NC(=O)[C@@H]2CCCN2C(=O)[C@H](CCc2ccc(C(F)(F)F)c(Cl)c2)NC(=O)CN(C)C(=O)[C@H](Cc2ccc(C(F)(F)F)cc2)N(CC)C(=O)[C@@H]2CCN2C(=O)[C@H](C)N(C)C1=O [PP0221] ([NMeL]I[NMeA][Aze][NEtPhe(4-CF3)][Sar][hPhe(3-Cl-4-CF3)]P[Aib][NMeGly(cPent)][NMeD]-Morpholide; lactam N-11) | C (A compound having a KD ratio of 0.1 or more and less than 3 is denoted as C) | C (A compound having a KD ratio of 0.1 or more and less than 3 is denoted as C) |
| CC[C@H](C)[C@@H]1NC(=O)[C@H](CC(C)C)N(C)C(=O)C[C@@H](C(=O)N2CCOCC2)N(C)C(=O)[C@H](C2CCCC2)N(C)C(=O)C2(CCCCC2)NC(=O)[C@@H]2CCCN2C(=O)[C@H](CCc2ccc(C(F)(F)F)c(Cl)c2)NC(=O)CN(C)C(=O)[C@H](Cc2ccc(C(F)(F)F)cc2)N(CC)C(=O)[C@@H]2CCN2C(=O)[C@H](C)N(C)C1=O [PP0222] ([NMeL]I[NMeA][Aze][NEtPhe(4-CF3)][Sar][hPhe(3-Cl-4-CF3)]P[Ac6c][NMeGly(cPent)][NMeD]-Morpholide; lactam N-11) | C (A compound having a KD ratio of 0.1 or more and less than 3 is denoted as C) | C (A compound having a KD ratio of 0.1 or more and less than 3 is denoted as C) |
| CC[C@H](C)[C@@H]1NC(=O)[C@H](CC(C)C)N(C)C(=O)C[C@@H](C(=O)N2CCOCC2)N(C)C(=O)[C@H](C2CCCC2)N(C)C(=O)C2(CCCC2)NC(=O)[C@@H]2CCCN2C(=O)[C@H](CCc2ccc(Cl)c(Cl)c2)NC(=O)CN(C)C(=O)[C@H](Cc2ccc(C(F)(F)F)cc2)N(CC)C(=O)[C@@H]2CCN2C(=O)[C@H](C)N(C)C1=O [PP0223] ([NMeL]I[NMeA][Aze][NEtPhe(4-CF3)][Sar][hPhe(3,4-Cl2)]P[Ac5c][NMeGly(cPent)][NMeD]-Morpholide; lactam N-11) | C (A compound having a KD ratio of 0.1 or more and less than 3 is denoted as C) | C (A compound having a KD ratio of 0.1 or more and less than 3 is denoted as C) |
| CCCN1C(=O)[C@@H]2CCN2C(=O)[C@H](C)N(C)C(=O)[C@H]([C@@H](C)CC)NC(=O)[C@H](CC(C)C)N(C)C(=O)C[C@@H](C(=O)N2CCOCC2)N(C)C(=O)[C@H](C2CCCC2)N(C)C(=O)C2(CC2)NC(=O)[C@@H]2CCCN2C(=O)[C@H](CCc2ccc(C(F)(F)F)c(Cl)c2)NC(=O)CN(C)C(=O)[C@@H]1Cc1ccc(C(F)(F)F)cc1 [PP0224] ([NMeL]I[NMeA][Aze][NPrPhe(4-CF3)][Sar][hPhe(3-Cl-4-CF3)]P[Ac3c][NMeGly(cPent)][NMeD]-Morpholide; lactam N-11) | C (A compound having a KD ratio of 0.1 or more and less than 3 is denoted as C) | B (a compound having 3 or more and less than 10 is denoted as B) |
| CCCN1C(=O)[C@@H]2CCN2C(=O)[C@H](C)N(C)C(=O)[C@H]([C@@H](C)CC)NC(=O)[C@H](CC(C)C)N(C)C(=O)C[C@@H](C(=O)N2CCOCC2)N(C)C(=O)[C@H](C2CCCC2)N(C)C(=O)C(C)(C)NC(=O)[C@@H]2CCCN2C(=O)[C@H](CCc2ccc(C(F)(F)F)c(Cl)c2)NC(=O)CN(C)C(=O)[C@@H]1Cc1ccc(C(F)(F)F)cc1 [PP0225] ([NMeL]I[NMeA][Aze][NPrPhe(4-CF3)][Sar][hPhe(3-Cl-4-CF3)]P[Aib][NMeGly(cPent)][NMeD]-Morpholide; lactam N-11) | C (A compound having a KD ratio of 0.1 or more and less than 3 is denoted as C) | C (A compound having a KD ratio of 0.1 or more and less than 3 is denoted as C) |
| CCCN1C(=O)[C@@H]2CCN2C(=O)[C@H](C)N(C)C(=O)[C@H]([C@@H](C)CC)NC(=O)[C@H](CC(C)C)N(C)C(=O)C[C@@H](C(=O)N2CCOCC2)N(C)C(=O)[C@H](C2CCCC2)N(C)C(=O)C2(CCCCC2)NC(=O)[C@@H]2CCCN2C(=O)[C@H](CCc2ccc(C(F)(F)F)c(Cl)c2)NC(=O)CN(C)C(=O)[C@@H]1Cc1ccc(C(F)(F)F)cc1 [PP0226] ([NMeL]I[NMeA][Aze][NPrPhe(4-CF3)][Sar][hPhe(3-Cl-4-CF3)]P[Ac6c][NMeGly(cPent)][NMeD]-Morpholide; lactam N-11) | C (A compound having a KD ratio of 0.1 or more and less than 3 is denoted as C) | B (a compound having 3 or more and less than 10 is denoted as B) |
| CCCN1C(=O)[C@@H]2CCN2C(=O)[C@H](C)N(C)C(=O)[C@H]([C@@H](C)CC)NC(=O)[C@H](CC(C)C)N(C)C(=O)C[C@@H](C(=O)N2CCOCC2)N(C)C(=O)[C@H](C2CCCC2)N(C)C(=O)C2(CCCC2)NC(=O)[C@@H]2CCCN2C(=O)[C@H](CCc2ccc(Cl)c(Cl)c2)NC(=O)CN(C)C(=O)[C@@H]1Cc1ccc(C(F)(F)F)cc1 [PP0227] ([NMeL]I[NMeA][Aze][NPrPhe(4-CF3)][Sar][hPhe(3,4-Cl2)]P[Ac5c][NMeGly(cPent)][NMeD]-Morpholide; lactam N-11) | C (A compound having a KD ratio of 0.1 or more and less than 3 is denoted as C) | B (a compound having 3 or more and less than 10 is denoted as B) |
| CCCN1C(=O)[C@@H]2CCN2C(=O)[C@H](C)N(C)C(=O)[C@H]([C@@H](C)CC)NC(=O)[C@H](CC(C)C)N(C)C(=O)C[C@@H](C(=O)N2CCOCC2)N(C)C(=O)[C@H](C2CCCC2)N(C)C(=O)C2(CCCC2)NC(=O)[C@@H]2C[C@@H](OCC)CN2C(=O)[C@H](CCc2ccc(C(F)(F)F)c(Cl)c2)NC(=O)CN(C)C(=O)[C@@H]1Cc1ccc(C(F)(F)F)cc1 [PP0228] ([NMeL]I[NMeA][Aze][NPrPhe(4-CF3)][Sar][hPhe(3-Cl-4-CF3)][Hyp](Et)[Ac5c][NMeGly(cPent)][NMeD]-Morpholide; lactam N-11) | C (A compound having a KD ratio of 0.1 or more and less than 3 is denoted as C) | B (a compound having 3 or more and less than 10 is denoted as B) |
